Where a name gives a salt, the structure may show the parent alone. Marks after values point to notes of the source that are not given here.
How the values were obtained:
[1] = target: acetylcholinesterase (AChE) (Homo sapiens, UniProt P22303); assay: In vitro acetylcholinesterase (AChE) activity assay, method of Ellman et al. with acetylthiocholine iodide as substrate; type: biochemical; details: for IC50: Mean ± SD of three replicates, synthetic conjugates, read-out: Acetylcholinesterase inhihitory activity IC50 (converted)
acetylcholinesterase (AChE), sequence (P22303 32-614, species assumed): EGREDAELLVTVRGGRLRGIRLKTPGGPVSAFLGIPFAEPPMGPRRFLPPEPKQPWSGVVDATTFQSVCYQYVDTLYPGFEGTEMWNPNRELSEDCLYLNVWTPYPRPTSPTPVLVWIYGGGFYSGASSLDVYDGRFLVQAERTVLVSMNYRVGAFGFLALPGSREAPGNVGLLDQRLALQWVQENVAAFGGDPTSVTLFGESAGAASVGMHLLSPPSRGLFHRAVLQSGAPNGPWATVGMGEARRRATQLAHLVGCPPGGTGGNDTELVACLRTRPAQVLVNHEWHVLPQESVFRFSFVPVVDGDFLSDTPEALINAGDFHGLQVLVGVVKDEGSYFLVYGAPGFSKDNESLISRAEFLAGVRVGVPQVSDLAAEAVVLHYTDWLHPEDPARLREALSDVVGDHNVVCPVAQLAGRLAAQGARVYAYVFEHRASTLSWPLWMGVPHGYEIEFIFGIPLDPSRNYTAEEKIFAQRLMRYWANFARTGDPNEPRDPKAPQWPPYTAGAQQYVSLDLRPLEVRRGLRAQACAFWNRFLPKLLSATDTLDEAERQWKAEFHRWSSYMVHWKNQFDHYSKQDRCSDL
Protocol: The acetylcholinesterase (AChE) assay was performed by the method of Ellman et al., with minor modification, using acetylthiocholine Iodide as a substrate (G. L. Ellman, et al., “A new and rapid colorimetric determination of acetylcholinesterase activity,” Biochem. Pharmacol. (1961) 7: 88-95). Ellman's reaction mixture was made from a combination of 10 mM Acetylthiocholine iodide and 0.5 mM 5,5′-dithio-bis-(2-nitrobenzoic acid) in a 0.05 M sodium phosphate buffer (pH 7.2). The rates of hydrolysis by AChE were monitored spectrophotometrically using a 96-well microtiter plate reader. Each test sample (10 μl) and 0.05 M sodium phosphate buffer (30 μl) was mixed with the enzyme solution (10 μl). An Ellman's reaction mixture (50 μl) was further added to give a final volume of 100 μl, and the mixture was incubated at 37° C. for 30 min. Absorbance at 450 nm was recorded immediately after adding the Ellman's reaction mixture. Reading was repeated for 10 min at 2 min intervals to verify that the reaction occurred linearly. Blank reaction was measured by substituting saline for the enzyme (Y. K. Chung, et al., “Inhibitory effect of ursolic acid purified from Origanum majorana L. on the acetylcholinesterase,” Mol. Cells (2001) 11: 137-143).
The acetylcholinesterase (AChE) assay was performed by the method of Ellman et. al., with minor modification, using acetylthiocholine Iodide as a substrate (G. L. Ellman, et al., “A new and rapid colorimetric determination of acetylcholinesterase activity,” Biochem. Pharmacol. (1961) 7: 88-95). Ellman's reaction mixture was made from a combination of 10 mM Acetylthiocholine iodide and 0.5 mM 5,5′-dithio-bis-(2-nitrobenzoic acid) in a 0.05 M sodium phosphate buffer (pH 7.2). The rates of hydrolysis by AChE were monitored spectrophotometrically using a 96-well microtiter plate reader. Each test sample (10 μl) and 0.05 M sodium phosphate buffer (30 μl) was mixed with the enzyme solution (10 μl). An Ellman's reaction mixture (50 μl) was further added to give a final volume of 100 μl, and the mixture was incubated at 37° C. for 30 min. Absorbance at 450 nm was recorded immediately after adding the Ellman's reaction mixture. Reading was repeated for 10 min at 2 min intervals to verify that the reaction occurred linearly. Blank reaction was measured by substituting saline for the enzyme (Y. K. Chung, et al., “Inhibitory effect of ursolic acid purified from Origanum majorana L. on the acetylcholinesterase,” Mol. Cells (2001) 11: 137-143).

[2] = tested on: Scopolamine-induced amnesic mice; assay: Scopolamine hydrobromide-induced amnesia, transfer latency on elevated plus maze; details: for Transfer Latency, Day 8: learning trial; for % Decrease in Transfer Latency, Mean ± SD: Table 16
Protocol: The elevated plus maze is used to measure the memory learning activity in mice; however, transfer latency, i.e., the time elapsed between the movement of the animal from an open to an enclosed arm was markedly shortened if the animal had previously experienced entering open and closed arms.
Retention was recorded after 24 hrs (9th day) and after an interval of one week (16th day).
Drug protocol. The animals were divided into 7 groups (Group I-VII) of eight animals in each group. Group I received vehicle (0.3% CMC) only and served as vehicle control. Groups II-VII were treated with the respective test drugs, as per the details mentioned in Table 1 below, for 16 days. […] Transfer Latency was recorded after 45 minutes of the drug administration on 8th day (learning trial) and 24 hrs (9th day) and one week (16th day) after learning trial.
Retention in elevated plus maze test was used to assess the memory functions in test animals. The plus maze consists of two open opposite arms, (50×10 cm) length×width, crossed with two enclosed arms of same dimensions with walls 40 cm high. The arms are connected with a central square, (10×10 cm) to give the apparatus a plus-sign appearance. The maze was kept elevated 50 cm above the floor in a dimly lit room. On day 8, mice were individually placed on far end of one of the open arms facing away from the center and transfer latency (TL) on day 8 was recorded. TL is the time taken by the mouse to move into any one of the covered arms with all its four legs. […] On day 9, the mice were again placed on the far end of the open arm and time taken by the mice to enter the enclosed arm, transfer latency (TL) day 9, was recorded. Similarly after an interval of one week, on day 16, the transfer latency (TL) day 16 was again recorded.
The retention scores were obtained for each animal by calculating percent decrease in latency period by the formula: % decrease in TL=(L1−L0/L0)×100
where, L0=initial transfer latency period in seconds, and L1=transfer latency after 24 hrs, or one week.

[3] = tested on: brain tissue Malondialdehyde (MDA); type: in vivo, Swiss Albino mice; details: day 16; test sample p.o. (50/20/30/1/1 mg/kg) + SH 0.5 mg/kg i.p.; mean ± SEM, n=4
Excerpt: Estimation of lipid peroxidation.
Alzheimer's disease (AD) is an irreversible neurodegenerative disorder having symptoms including confusion, memory loss, and mood swings. The beta-amyloid peptide (BAP), with 39-42 amino acid residues, plays a significant role in the development of AD. Although there is no cure for AD, it can be managed with available drugs, but only to a small degree in a small subset of patients. […] In this study, the lipid peroxidation levels in brains of different treatment groups were measured by estimating the brain tissue Malondialdehyde (MDA) concentration. 5.

[4] = tested on: mice; assay: Open-field exploratory behavior test, anxiety paradigm; parameters: species or system Swiss Albino mice; details: mouse, in vivo
Protocol: Drug preparation and administration of doses.
Study design. The behavioral tests conducted with multiple seven-dose schedules. The mice were tested only once after the completion of the drug treatment schedule in the elevated plus maze and open field. The studies were carried out in a sound proof room to avoid disturbances to the animals during the behavioral studies. Exposure to a novel environment is associated with emotional disturbance and anxiety. […] Anxiety is also associated with augmented autonomic activity resulting in increased defecation and urination. All these effects are accentuated by anxiogenic drugs and attenuated by anxiolytics. Standard screening procedures such as open field method and elevated plus maze test were used to screen the anxiolytic effect of drugs in comparison with a standard drug, Diazepam.
Open-field exploratory behavior test. The open field exploratory apparatus is similar to that of Bronstein (P. M. Bronstein, “Open field behaviour of the rat as a function of age: cross sectional and longitudinal investigations,” J. Comp. Physiol. Psycol. (1972) 80: 335-341). It is made of plywood and consists of squares (61×61 cm) with high walls. […] The ratio between the number of times the animal crossed the central and the number of times the animal crossed the peripheral square is calculated.

[5] = Example 7B, synthetic conjugates 1 and 5 mg/kg p.o. 16 days
[6] = Table 15, conjugate 1 mg/kg p.o. + SH 0.5 mg/kg i.p., mean ± SD, n=8
[7] = Table 15, conjugate 1 mg/kg p.o., mean ± SD, n=8
[8] = Table 15, conjugate 5 mg/kg p.o. + SH 0.5 mg/kg i.p., mean ± SD, n=8
[9] = Table 15, conjugate 5 mg/kg p.o., mean ± SD, n=8
[10] = after 24 h (day 9), conjugate 1 mg/kg p.o. + SH 0.5 mg/kg i.p., n=8
[11] = after 24 h (day 9), conjugate 5 mg/kg p.o. + SH 0.5 mg/kg i.p., n=8
[12] = Table 17, after 1 week (day 16), conjugate 1 mg/kg p.o. + SH 0.5 mg/kg i.p., n=8
[13] = Table 17, after 1 week (day 16), conjugate 5 mg/kg p.o. + SH 0.5 mg/kg i.p., n=8
[14] = Table 2, SH 0.5 mg/kg i.p. alone, mean ± SEM
[15] = Table 15, SH 0.5 mg/kg i.p. alone, mean ± SD

Compound | in vitro acetylcholinesterase inhibitory activity (in words) [1] | IC50 [1] [µM] | effect on Scopolamine-induced amnesia (in words) [2, 5] | Transfer Latency, Day 9 [2, 6] | Transfer Latency, Day 16 [2, 6] | Transfer Latency, Day 8 [2, 7] [s] | Transfer Latency, Day 9 [2, 8] | Transfer Latency, Day 16 [2, 8] | Transfer Latency, Day 8 [2, 9] [s] | % Decrease in Transfer Latency, Mean ± SD [2, 10] [%] | % Decrease in Transfer Latency, Mean ± SD [2, 11] | % Decrease in Transfer Latency, Mean ± SEM [2, 12] | % Decrease in Transfer Latency, Mean ± SEM [2, 13] | also measured
CC1=C(CO)C(=O)O[C@@H]([C@@H](C)[C@H]2CC[C@H]3[C@@H]4C[C@H]5O[C@]56[C@@H](O)C(NCCc5c[nH]c7ccccc57)CC(=O)[C@]6(C)[C@H]4CC[C@]23C)C1 (stereo partly shown) [Tryptamino-withaferin-A conjugate] | good dose-dependent in-vitro acetylcholinesterase inhibitory activity | 56.1 | significantly attenuated and reversed the Scopolamine-induced amnesia | 56.17 ± 21.99^b s | 16.50 ± 9.52^bbb s | 178.00 ± 117.90 | 51.67 ± 15.28 ^b s | 15.17 ± 10.09^bbb s | 159.00 ± 126.20 | 54.97 ± 27.54 | 59.93 ± 13.31% | 88.10 ± 6.17^b % | 85.72 ± 11.96^bb % | –
CC1=C(CO)C(=O)O[C@@H]([C@@H](C)[C@H]2CC[C@H]3[C@@H]4C[C@H]5O[C@]56[C@@H](O)C=CC(=O)[C@]6(C)[C@H]4CC[C@]23C)C1 [Withaferin-A, Withaferin A, reference compound] | only feeble inhibitory activity | – | – | – | – | – | – | – | – | – | – | – | – | MDA Content, brain tissue [3]: 4.77 ± 0.07 nmol/mL; anxiolytic effect in open field test (in words) [4]: did not show any anxiolytic effect; effect on Scopolamine-induced amnesia (in words) ([2]; Example 4A, WS extract and fractions p.o. 16 days): did not protect from or attenuate the Scopolamine-induced amnesia; Transfer Latency, Day 9 ([2]; Table 2, 24 h after SH 0.5 mg/kg i.p., test sample p.o. (50/20/30/1/1 mg/kg), mean ± SEM, n=8): 124.00 ± 13.27 s; Transfer Latency, Day 8 ([2]; Table 2, test sample p.o. daily (WS-74 50, Ace Sol 20, Ace Insol 30, IAEF-A 1, Withaferin-A 1 mg/kg), mean ± SEM, n=8): 180.40 ± 8.04 s; Transfer Latency, Day 16 ([2]; Table 2, one week after SH 0.5 mg/kg i.p., test sample p.o. 16 days (50/20/30/1/1 mg/kg), mean ± SEM, n=8): 114.90 ± 13.10 s; % Decrease in Transfer Latency, Mean ± SEM ([2]; Table 3, after 24 h (day 9), test sample p.o. (50/20/30/1/1 mg/kg) + SH 0.5 mg/kg i.p., n=8): 29.28 ± 9.43%; % Decrease in Transfer Latency, Mean ± SEM ([2]; Table 4, after 1 week (day 16), test sample p.o. (50/20/30/1/1 mg/kg) + SH 0.5 mg/kg i.p., n=8): 34.33 ± 9.30%
CN1[C@@H]2C[C@@H](OC(=O)[C@H](CO)c3ccccc3)C[C@H]1[C@@H]1O[C@@H]12 [SH, Scopolamine Hydrobromide, reference compound] | – | – | – | – | – | – | – | – | – | – | – | – | – | induction of amnesia (in words) ([2]; SH 0.5 mg/kg i.p. alone vs vehicle): produced amnesia in animals; Transfer Latency, Day 8 ([2]; Table 2, SH 0.5 mg/kg i.p. alone group, mean ± SEM): 171.50 ± 16.08 s; Transfer Latency, Day 9 [2, 14]: 143.90 ± 15.30 s; Transfer Latency, Day 16 [2, 14]: 133.10 ± 15.95 s; % Decrease in Transfer Latency, Mean ± SEM ([2]; Table 3, after 24 h (day 9), SH 0.5 mg/kg i.p. alone): 14.91 ± 5.75%; % Decrease in Transfer Latency, Mean ± SEM ([2]; Table 4, after 1 week (day 16), SH 0.5 mg/kg i.p. alone): 22.11 ± 5.03%; Transfer Latency, Day 8 ([2]; Table 15, SH 0.5 mg/kg i.p. alone group, mean ± SD): 160.00 ± 66.68 s; Transfer Latency, Day 9 [2, 15]: 106.00 ± 42.81^aa s; Transfer Latency, Day 16 [2, 15]: 48.17 ± 12.73 ^aaa s; % Decrease in Transfer Latency, Mean ± SD ([2]; after 24 h (day 9), SH 0.5 mg/kg i.p. alone): 29.86 ± 17.79%; % Decrease in Transfer Latency, Mean ± SEM ([2]; Table 17, after 1 week (day 16), SH 0.5 mg/kg i.p. alone): 63.54 ± 18.87^aa %
COc1ccc2[nH]cc(CCNC3CC(=O)[C@]4(C)[C@H]5CC[C@]6(C)[C@@H]([C@H](C)[C@H]7CC(C)=C(CO)C(=O)O7)CC[C@H]6[C@@H]5C[C@H]5O[C@]54[C@H]3O)c2c1 (stereo partly shown) | good dose-dependent in-vitro acetylcholinesterase inhibitory activity | 149 | significantly attenuated and reversed the Scopolamine-induced amnesia | 76.63 ± 33.95 s | 43.13 ± 12.43 s | 139.1 ± 25.05 | 37.25 ± 4.43^bb s | 18.00 ± 4.14^bbb s | 141.00 ± 35.66 | 45.62 ± 16.51 | 72.18 ± 6.60. % | 69.13 ± 5.38% | 85.79 ± 9.92^bb % | –
